Experimental data: the kinase profiling compilation of Christmann-Franck et al. (2016)

Experiments:
Assay in all cases: radiometric filter-binding kinase assay
[1] = target: STK11 CAB39 STRADA (human) (UniProt Q9Y376+Q7RTN6+Q15831)
RIPK2 (human) = RIPK2 (human) (UniProt O43353)
MAPK11 (human) = MAPK11 (human) (UniProt Q15759)
PRKCA (human) = PRKCA (human) (UniProt P17252)
YES1 (human) = YES1 (human) (UniProt P07947)
MKNK2 (human) = MKNK2 (human) (UniProt Q9HBH9)
DYRK2 (human) = DYRK2 (human) (UniProt Q92630)
RPS6KA1 KD1 KD2 (human) = RPS6KA1 KD1 KD2 (human) (UniProt Q15418)
SRPK1 (human) = SRPK1 (human) (UniProt Q96SB4)
CLK2 (human) = CLK2 (human) (UniProt P49760)
MAPK15 (human) = MAPK15 (human) (UniProt Q8TD08)
MAPK14 (human) = MAPK14 (human) (UniProt Q16539)
INSR (human) = INSR (human) (UniProt P06213)
NTRK1 (human) = NTRK1 (human) (UniProt P04629)
IRAK4 (human) = IRAK4 (human) (UniProt Q9NWZ3)
MAP3K1 (human) = MAP3K1 (human) (UniProt Q13233); conditions: compound 100.0 µM
CSNK2A1 (human) = CSNK2A1 (human) (UniProt P68400)
BTK (human) = BTK (human) (UniProt Q06187); conditions: compound 1000.0 µM
[2] = tested on: AKT2 (human), P31751 [S474D]
MAPK1 (human) = MAPK1 (human) (UniProt P28482)
CSNK1D (human) = CSNK1D (human) (UniProt P48730)
FLT1 (human) = FLT1 (human) (UniProt P17948)
MAP3K9 (human) = MAP3K9 (human) (UniProt P80192)
JAK2 JH1 JH2 (human) = JAK2 JH1 JH2 (human) (UniProt O60674)
NEK2 (human) = NEK2 (human) (UniProt P51955)
AURKA (human) = AURKA (human) (UniProt O14965)
INSRR (human) = INSRR (human) (UniProt P14616)
[3] = tested on: RPS6KB1 (human), P23443 [T412E]
HIPK2 (human) = HIPK2 (human) (UniProt Q9H2X6)
RPS6KA5 KD1 KD2 (human) = RPS6KA5 KD1 KD2 (human) (UniProt O75582)
MAPKAPK3 (human) = MAPKAPK3 (human) (UniProt Q16644)
NEK6 (human) = NEK6 (human) (UniProt Q9HC98); conditions: compound 10.0 µM
HIPK1 (human) = HIPK1 (human) (UniProt Q86Z02); conditions: compound 100.0 µM
MARK4 (human) = MARK4 (human) (UniProt Q96L34)
MARK3 (human) = MARK3 (human) (UniProt P27448)

RPS6KB1 (human), P23443 [T412E], sequence (P23443 whole entry T412E, looked up): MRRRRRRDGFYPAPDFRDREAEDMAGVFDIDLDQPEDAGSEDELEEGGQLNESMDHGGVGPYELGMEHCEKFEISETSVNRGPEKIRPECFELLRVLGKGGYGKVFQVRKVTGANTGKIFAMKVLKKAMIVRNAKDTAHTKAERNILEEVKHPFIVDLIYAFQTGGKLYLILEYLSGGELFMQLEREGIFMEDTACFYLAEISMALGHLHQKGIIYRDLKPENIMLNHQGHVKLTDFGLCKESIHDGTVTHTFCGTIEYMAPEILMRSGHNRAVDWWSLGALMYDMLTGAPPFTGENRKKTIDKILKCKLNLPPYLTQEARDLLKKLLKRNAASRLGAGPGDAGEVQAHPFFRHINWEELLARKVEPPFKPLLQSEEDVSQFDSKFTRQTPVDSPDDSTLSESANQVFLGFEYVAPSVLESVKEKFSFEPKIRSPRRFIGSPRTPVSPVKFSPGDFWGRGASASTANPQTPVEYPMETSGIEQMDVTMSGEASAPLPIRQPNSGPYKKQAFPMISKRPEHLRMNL
CLK2 (human), sequence (P49760 whole entry, looked up): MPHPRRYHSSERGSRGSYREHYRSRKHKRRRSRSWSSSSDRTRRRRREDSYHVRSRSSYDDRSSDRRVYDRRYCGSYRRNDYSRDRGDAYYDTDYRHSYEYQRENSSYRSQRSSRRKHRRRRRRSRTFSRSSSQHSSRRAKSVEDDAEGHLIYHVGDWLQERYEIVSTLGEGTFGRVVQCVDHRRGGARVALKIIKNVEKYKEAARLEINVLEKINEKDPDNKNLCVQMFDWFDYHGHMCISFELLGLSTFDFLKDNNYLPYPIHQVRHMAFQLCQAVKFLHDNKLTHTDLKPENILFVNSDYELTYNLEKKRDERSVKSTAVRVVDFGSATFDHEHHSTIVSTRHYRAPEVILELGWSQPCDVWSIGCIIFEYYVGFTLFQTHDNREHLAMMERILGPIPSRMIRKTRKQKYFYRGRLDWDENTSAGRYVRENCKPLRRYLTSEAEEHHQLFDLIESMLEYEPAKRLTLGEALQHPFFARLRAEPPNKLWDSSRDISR
INSRR (human), sequence (P14616 whole entry, looked up): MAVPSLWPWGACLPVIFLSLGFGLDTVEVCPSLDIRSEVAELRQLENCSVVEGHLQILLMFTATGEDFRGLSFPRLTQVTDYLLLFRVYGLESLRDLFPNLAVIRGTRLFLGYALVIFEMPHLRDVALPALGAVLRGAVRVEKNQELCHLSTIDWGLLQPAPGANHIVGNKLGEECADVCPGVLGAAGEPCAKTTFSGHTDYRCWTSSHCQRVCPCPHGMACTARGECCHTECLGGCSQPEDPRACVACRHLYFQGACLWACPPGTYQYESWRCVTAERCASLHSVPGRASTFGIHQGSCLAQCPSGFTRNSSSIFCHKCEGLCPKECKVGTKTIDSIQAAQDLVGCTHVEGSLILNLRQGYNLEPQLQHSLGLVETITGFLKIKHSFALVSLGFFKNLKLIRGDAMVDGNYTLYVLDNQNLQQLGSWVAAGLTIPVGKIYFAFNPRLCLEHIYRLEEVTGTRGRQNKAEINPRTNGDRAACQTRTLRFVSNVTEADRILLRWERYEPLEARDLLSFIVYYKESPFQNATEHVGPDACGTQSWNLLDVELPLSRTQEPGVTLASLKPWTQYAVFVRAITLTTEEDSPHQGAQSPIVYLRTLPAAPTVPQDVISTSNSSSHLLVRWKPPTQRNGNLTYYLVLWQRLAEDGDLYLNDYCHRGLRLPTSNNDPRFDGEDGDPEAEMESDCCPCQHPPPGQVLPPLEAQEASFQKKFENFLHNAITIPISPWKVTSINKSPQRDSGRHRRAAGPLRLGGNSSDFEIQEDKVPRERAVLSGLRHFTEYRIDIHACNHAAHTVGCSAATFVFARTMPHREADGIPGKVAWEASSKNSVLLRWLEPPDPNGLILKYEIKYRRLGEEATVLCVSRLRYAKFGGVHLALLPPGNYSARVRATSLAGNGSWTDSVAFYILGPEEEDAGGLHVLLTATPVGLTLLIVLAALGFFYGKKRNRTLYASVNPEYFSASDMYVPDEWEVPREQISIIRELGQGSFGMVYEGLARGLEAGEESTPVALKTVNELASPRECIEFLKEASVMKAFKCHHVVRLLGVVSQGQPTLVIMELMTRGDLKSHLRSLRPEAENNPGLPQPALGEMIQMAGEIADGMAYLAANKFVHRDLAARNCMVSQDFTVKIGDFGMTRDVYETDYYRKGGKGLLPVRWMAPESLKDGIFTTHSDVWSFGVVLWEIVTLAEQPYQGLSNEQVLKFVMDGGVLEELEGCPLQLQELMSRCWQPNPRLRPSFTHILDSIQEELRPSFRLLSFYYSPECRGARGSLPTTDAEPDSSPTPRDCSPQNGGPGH
HIPK2 (human), sequence (Q9H2X6 whole entry, looked up): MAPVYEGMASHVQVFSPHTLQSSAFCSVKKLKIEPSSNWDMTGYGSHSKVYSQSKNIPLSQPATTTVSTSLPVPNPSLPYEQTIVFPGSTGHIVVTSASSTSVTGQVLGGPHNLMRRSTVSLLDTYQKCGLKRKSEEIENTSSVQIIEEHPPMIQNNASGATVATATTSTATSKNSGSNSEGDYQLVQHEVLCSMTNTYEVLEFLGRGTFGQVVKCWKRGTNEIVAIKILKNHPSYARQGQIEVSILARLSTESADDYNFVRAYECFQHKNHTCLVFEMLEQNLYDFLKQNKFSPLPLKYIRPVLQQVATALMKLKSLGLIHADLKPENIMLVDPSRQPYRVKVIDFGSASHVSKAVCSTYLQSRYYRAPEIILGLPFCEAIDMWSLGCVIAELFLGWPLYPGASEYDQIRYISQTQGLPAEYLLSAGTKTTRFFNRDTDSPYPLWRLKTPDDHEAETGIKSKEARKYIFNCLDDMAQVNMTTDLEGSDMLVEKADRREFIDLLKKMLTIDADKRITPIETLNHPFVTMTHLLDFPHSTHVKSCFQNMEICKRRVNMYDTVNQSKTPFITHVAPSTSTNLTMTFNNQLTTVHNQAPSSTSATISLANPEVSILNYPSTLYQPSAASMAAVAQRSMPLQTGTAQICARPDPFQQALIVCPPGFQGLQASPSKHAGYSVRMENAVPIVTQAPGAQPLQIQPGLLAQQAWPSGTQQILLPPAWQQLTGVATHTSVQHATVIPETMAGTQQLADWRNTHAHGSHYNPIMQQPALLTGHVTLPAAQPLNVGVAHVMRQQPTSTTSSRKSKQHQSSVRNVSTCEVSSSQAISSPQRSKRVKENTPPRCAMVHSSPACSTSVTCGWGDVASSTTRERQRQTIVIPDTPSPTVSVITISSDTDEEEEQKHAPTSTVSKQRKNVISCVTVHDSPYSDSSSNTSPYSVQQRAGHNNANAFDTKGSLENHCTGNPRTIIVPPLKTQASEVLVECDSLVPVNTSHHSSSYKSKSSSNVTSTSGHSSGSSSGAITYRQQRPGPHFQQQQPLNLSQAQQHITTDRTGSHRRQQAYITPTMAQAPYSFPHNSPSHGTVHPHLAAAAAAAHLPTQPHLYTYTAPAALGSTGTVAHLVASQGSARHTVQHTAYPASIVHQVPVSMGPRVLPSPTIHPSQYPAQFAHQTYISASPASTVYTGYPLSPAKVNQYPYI
INSR (human), sequence (P06213 whole entry, looked up): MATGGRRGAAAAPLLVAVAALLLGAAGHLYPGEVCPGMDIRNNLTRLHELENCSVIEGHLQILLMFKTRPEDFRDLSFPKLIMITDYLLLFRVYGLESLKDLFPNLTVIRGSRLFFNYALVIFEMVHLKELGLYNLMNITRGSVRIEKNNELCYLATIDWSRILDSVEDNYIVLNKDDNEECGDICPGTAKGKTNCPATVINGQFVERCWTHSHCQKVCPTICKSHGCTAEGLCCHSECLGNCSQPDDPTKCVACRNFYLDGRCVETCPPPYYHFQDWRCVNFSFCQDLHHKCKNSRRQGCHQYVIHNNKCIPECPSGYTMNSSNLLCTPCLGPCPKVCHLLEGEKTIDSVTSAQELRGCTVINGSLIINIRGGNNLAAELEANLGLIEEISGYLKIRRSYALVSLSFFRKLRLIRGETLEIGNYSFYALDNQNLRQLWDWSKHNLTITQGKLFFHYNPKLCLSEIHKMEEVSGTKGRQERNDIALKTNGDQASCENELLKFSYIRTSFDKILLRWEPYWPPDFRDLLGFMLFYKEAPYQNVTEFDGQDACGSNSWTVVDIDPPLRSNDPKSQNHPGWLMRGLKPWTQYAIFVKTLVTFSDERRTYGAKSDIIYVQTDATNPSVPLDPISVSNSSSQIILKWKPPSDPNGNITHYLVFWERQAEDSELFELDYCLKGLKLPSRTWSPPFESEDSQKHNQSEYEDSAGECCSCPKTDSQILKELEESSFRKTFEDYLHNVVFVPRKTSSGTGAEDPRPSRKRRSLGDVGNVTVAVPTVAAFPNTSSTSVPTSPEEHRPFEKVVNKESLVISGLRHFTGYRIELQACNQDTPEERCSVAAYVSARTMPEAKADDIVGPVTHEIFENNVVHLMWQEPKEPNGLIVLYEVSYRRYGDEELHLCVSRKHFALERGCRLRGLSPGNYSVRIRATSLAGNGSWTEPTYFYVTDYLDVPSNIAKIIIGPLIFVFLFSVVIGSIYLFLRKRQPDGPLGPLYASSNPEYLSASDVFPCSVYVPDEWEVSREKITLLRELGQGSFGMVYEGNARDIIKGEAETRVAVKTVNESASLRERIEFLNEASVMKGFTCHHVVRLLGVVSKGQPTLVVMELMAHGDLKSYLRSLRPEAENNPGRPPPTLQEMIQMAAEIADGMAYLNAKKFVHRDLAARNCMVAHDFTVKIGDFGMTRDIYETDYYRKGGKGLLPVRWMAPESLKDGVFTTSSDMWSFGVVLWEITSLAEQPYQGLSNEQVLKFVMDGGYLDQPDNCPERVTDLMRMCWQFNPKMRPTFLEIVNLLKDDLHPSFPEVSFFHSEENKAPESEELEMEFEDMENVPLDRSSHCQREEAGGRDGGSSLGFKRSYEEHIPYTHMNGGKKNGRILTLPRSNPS

- residual activity ([1]; compound 10.0 µM): 93%
- residual activity ([1]; compound 100.0 µM): 97%
- residual activity ([1]; compound 1000.0 µM): 100%
- residual activity (RIPK2 (human); compound 10.0 µM): 93%
- residual activity (RIPK2 (human); compound 100.0 µM): 104%
- residual activity (RIPK2 (human); compound 1000.0 µM): 111%
- residual activity (MAPK11 (human); compound 10.0 µM): 111%
- residual activity (MAPK11 (human); compound 1000.0 µM): 104%
- residual activity (PRKCA (human); compound 10.0 µM): 99%
- residual activity (PRKCA (human); compound 100.0 µM): 101%
- residual activity (PRKCA (human); compound 1000.0 µM): 105%
- residual activity (YES1 (human); compound 10.0 µM): 114%
- residual activity (YES1 (human); compound 100.0 µM): 116%
- residual activity (YES1 (human); compound 1000.0 µM): 118%
- residual activity (MKNK2 (human); compound 10.0 µM): 101%
- residual activity (MKNK2 (human); compound 100.0 µM): 107%
- residual activity (MKNK2 (human); compound 1000.0 µM): 110%
- residual activity (DYRK2 (human); compound 10.0 µM): 91%
- residual activity (DYRK2 (human); compound 100.0 µM): 94%
- residual activity (DYRK2 (human); compound 1000.0 µM): 103%
- residual activity (RPS6KA1 KD1 KD2 (human); compound 10.0 µM): 91%
- residual activity (RPS6KA1 KD1 KD2 (human); compound 100.0 µM): 92%
- residual activity (RPS6KA1 KD1 KD2 (human); compound 1000.0 µM): 90%
- residual activity (SRPK1 (human); compound 10.0 µM): 91%
- residual activity (SRPK1 (human); compound 100.0 µM): 101%
- residual activity (SRPK1 (human); compound 1000.0 µM): 103%
- residual activity (CLK2 (human); compound 10.0 µM): 92%
- residual activity (CLK2 (human); compound 100.0 µM): 100%
- residual activity (CLK2 (human); compound 1000.0 µM): 101%
- residual activity (MAPK14 (human); compound 10.0 µM): 90%
- residual activity (MAPK14 (human); compound 100.0 µM): 99%
- residual activity (MAPK14 (human); compound 1000.0 µM): 106%
- residual activity (INSR (human); compound 10.0 µM): 60%
- residual activity (INSR (human); compound 100.0 µM): 62%
- residual activity (INSR (human); compound 1000.0 µM): 79%
- residual activity (NTRK1 (human); compound 10.0 µM): 88%
- residual activity (NTRK1 (human); compound 100.0 µM): 96%
- residual activity (NTRK1 (human); compound 1000.0 µM): 83%
- residual activity (IRAK4 (human); compound 10.0 µM): 88%
- residual activity (IRAK4 (human); compound 100.0 µM): 104%
- residual activity (IRAK4 (human); compound 1000.0 µM): 117%
- residual activity (MAP3K1 (human)): 95%
- residual activity (CSNK2A1 (human); compound 10.0 µM): 98%
- residual activity (CSNK2A1 (human); compound 100.0 µM): 95%
- residual activity (CSNK2A1 (human); compound 1000.0 µM): 91%
- residual activity (BTK (human)): 135%
- residual activity ([2]; compound 10.0 µM): 81%
- residual activity ([2]; compound 100.0 µM): 93%
- residual activity ([2]; compound 1000.0 µM): 106%
- residual activity (MAPK1 (human); compound 10.0 µM): 85%
- residual activity (MAPK1 (human); compound 1000.0 µM): 105%
- residual activity (CSNK1D (human); compound 10.0 µM): 88%
- residual activity (CSNK1D (human); compound 100.0 µM): 94%
- residual activity (CSNK1D (human); compound 1000.0 µM): 105%
- residual activity (FLT1 (human); compound 10.0 µM): 108%
- residual activity (FLT1 (human); compound 100.0 µM): 110%
- residual activity (FLT1 (human); compound 1000.0 µM): 98%
- residual activity (MAP3K9 (human); compound 10.0 µM): 87%
- residual activity (MAP3K9 (human); compound 100.0 µM): 112%
- residual activity (MAP3K9 (human); compound 1000.0 µM): 135%
- residual activity (JAK2 JH1 JH2 (human); compound 10.0 µM): 100%
- residual activity (JAK2 JH1 JH2 (human); compound 100.0 µM): 105%
- residual activity (JAK2 JH1 JH2 (human); compound 1000.0 µM): 116%
- residual activity (NEK2 (human); compound 10.0 µM): 100%
- residual activity (NEK2 (human); compound 100.0 µM): 100%
- residual activity (NEK2 (human); compound 1000.0 µM): 102%
- residual activity (AURKA (human); compound 10.0 µM): 117%
- residual activity (AURKA (human); compound 100.0 µM): 120%
- residual activity (AURKA (human); compound 1000.0 µM): 114%
- residual activity (INSRR (human); compound 10.0 µM): 103%
- residual activity (INSRR (human); compound 100.0 µM): 108%
- residual activity (INSRR (human); compound 1000.0 µM): 112%
- residual activity ([3]; compound 10.0 µM): 99%
- residual activity ([3]; compound 100.0 µM): 101%
- residual activity ([3]; compound 1000.0 µM): 115%
- residual activity (HIPK2 (human); compound 10.0 µM): 98%
- residual activity (HIPK2 (human); compound 100.0 µM): 101%
- residual activity (HIPK2 (human); compound 1000.0 µM): 94%
- residual activity (RPS6KA5 KD1 KD2 (human); compound 10.0 µM): 107%
- residual activity (RPS6KA5 KD1 KD2 (human); compound 100.0 µM): 105%
- residual activity (MAPKAPK3 (human); compound 10.0 µM): 87%
- residual activity (MAPKAPK3 (human); compound 100.0 µM): 97%
- residual activity (NEK6 (human)): 103%
- residual activity (HIPK1 (human)): 95%
- residual activity (MARK4 (human); compound 100.0 µM): 92%
- residual activity (MARK4 (human); compound 1000.0 µM): 96%
- residual activity (MARK3 (human); compound 100.0 µM): 108%
- residual activity (MARK3 (human); compound 1000.0 µM): 132%
Compound: COC(=O)/C=C/C(=O)OC
- residual activity (MAPK15 (human); compound 10.0 µM): 89%
- residual activity (MAPK15 (human); compound 100.0 µM): 100%
- residual activity (MAPK15 (human); compound 1000.0 µM): 96%
